From ChEMBL document CHEMBL4725415, “First Structure-Activity Relationship Study of Potent BLT2 Agonists as Potential Wound-Healing Promoters” (J Med Chem, 2020) come the findings set out here.

Series [1] is described as follows: physchem. The conditions noted are these: PBS buffer with 1% dimethyl sulfoxide, pH 7.4.
Series [2] is described as follows: in vitro. The conditions noted are these: Sprague-Dawley, rat, liver microsomes. Background: Liver microsomes are a subcellular fraction often used to study metabolism.

Values after ≈ are worked out from the molar mass of the structure shown.

What is called solubility is how much of the substance goes into solution per volume. Broadly, the share remaining is the share of the starting amount still present when the sample was taken. The low end stands for a greater loss, the high end for greater stability.

In series [1], `CCCCC(=O)N(Cc1ccc(-c2ccccc2C(=O)O)cc1)c1ccccc1` displayed a solubility of 250 µM (≈ 96.9 µg/mL). The same molecule came in with a fraction remaining at 1 h, 1000 µM in series [2] of 66%.
